Source: ChEMBL document CHEMBL2040549, “Inhibition of cap (m7GpppXm)-dependent endonuclease of influenza virus by 4-substituted 2,4-dioxobutanoic acid compounds” (Antimicrob Agents Chemother, 1994)

The molecules below were run against Polymerase acidic protein (Influenza A virus (A/Puerto Rico/8/1934(H1N1)), UniProt P03433) (assay: Inhibition of cap 1 ALMV primed Influenza transcriptase).
With `O=C(O)C(=O)CCc1ccccc1` the IC50 was greater than 500 µM. With `O=C(CC(O)C(=O)O)c1ccccc1` (stereo not drawn) the IC50 was greater than 500 µM. Work on `O=C(O)/C(O)=C/C(=O)C1(Cc2ccc(Cl)cc2)CCCN(S(=O)(=O)Cc2ccccc2)C1` (stereo not drawn) yielded an IC50 of 0.19 µM. For `O=C(O)/C(O)=C/C(=O)C1CCCCC1`, the IC50 was 29.4 µM. Molecule `CC(C)C(=O)/C=C(\O)C(=O)O` has an IC50 of 56.7 µM. In the case of `CC(=O)/C=C(\O)C(=O)O`, the IC50 is reported as 307 µM. Molecule `NC(CC(=O)c1ccccc1)C(=O)O` (stereo not drawn) has an IC50 greater than 500 µM. Molecule `O=C(O)/C(O)=C/S(=O)(=O)c1ccccc1` has an IC50 greater than 500 µM. Work on `O=C(O)/C(O)=C/c1cc2ccccc2o1` yielded an IC50 greater than 500 µM. In the case of `O=C(O)/C(O)=C/c1nc2ccccc2s1`, the IC50 is reported as greater than 500 µM. `Cn1c(/C=C(\O)C(=O)O)nc2ccccc21` showed an IC50 greater than 500 µM. `O=C(O)/C(O)=C/c1nc2ccccc2o1` was tested, and the IC50 was 100 µM. For `NC(=O)/C(O)=C/C(=O)C1CCCCC1`, the IC50 was greater than 500 µM.
